Results on one compound are retold here after patent publication US11885816B2, “Personalized medicine approach for treating cognitive loss” (University of North Texas Health Science Center at Fort …, priority 2013, dated 2024).

The experiment deals with AD patients. Particulars: for disease severity (CDR Sum of Boxes [CDRSum]): treated; for change in MMSE scores over the 12 month period of the trial: treatment group. Here is the method: In order to determine if the proinflammatory endophenotype predicted treatment response, baseline plasma samples were analyses from a previously conducted trial of the Alzheimer's Disease Cooperative Study (ADCS, Aisen et al 2003, JAMA).
Baseline plasma samples were assayed using enhanced chemiluminescence (ECL) for a range of inflammatory markers. The pro-inflammatory profile was generated using CRP and TNFα. Additional markers can be used to improve the already robust results shown herein. The frequency of the low, middle (referent group) and high ends of the pro-inflammatory profile are presented below.
Blood samples from a previously conducted clinical trial among AD patients was used. This trial was conducted by the Alzheimer's Disease Cooperative Study (ADCS, Aisen et al 2003, JAMA).
Baseline plasma samples were assayed using ECL for a range of inflammatory markers. The pro-inflammatory profile was generated using CRP and TNFα.

SMILES strings stand for the structures. “Also recorded” adds a separate entry of the source. Read-outs that look alike come from different tables or passages of the source.

`COc1ccc2cc([C@H](C)C(=O)O)ccc2c1` [naproxen]: the “treatment comparison of non-selective with selective NSAIDs” value (high end of the proinflammatory endophenotype, comparator selective NSAIDs (celecoxib)) was “superior treatment”. Further, the “disease severity (CDR Sum of Boxes [CDRSum])” value runs as follows: (high end of the pro-inflammatory profile, compared to untreated) “declined less than those who were untreated”; (low end of the pro-inflammatory profile, over 12 months, compared to any other group) “progressed in disease severity more rapidly”. Also, the “change in MMSE scores over the 12 month period of the trial” value reads like this: (high end of the pro-inflammatory profile (group 3), compared to the low end and the referent group, listed as anti-inflammatory drug) “stable over 12 months; also recorded: stable over 12 mo”; (low end of the pro-inflammatory profile (group 1), compared to the referent (middle) group) “declined significantly faster”.
